In one series the test system is Brachiaria plantophylla. Briefly: Herbicidal action, visual scoring. The format is in vivo. As to conditions: Table 24; post-emergence; scoring 6 weeks after application; g of A.S./ha by row: r6 45, r7 22.5, r8 60, r9 30, r11 22.5 + 30, r13 60, r14 30, r16 22.5 + 30, r18 450, r20 22.5 + 450. Here is the method:
(§1) The herbicidal activity of the active substances or active substance mixtures was scored visually with the aid of the treated parcels in comparison with untreated control parcels. Damage to and development of all above-ground parts of plants was recorded here. Scoring was carried out on a percentage scale (100% action=all plants died; 50% action=50% of the plants and green plant parts died; 0% action=no discernible action=like control parcels. The mean of the scoring values of 4 parcels in each case was taken.
Seeds or rhizome pieces of monocotyledonous and dicotyledonous weeds are placed in sandy loam soil in pots, covered with soil and grown in the greenhouse under good growth conditions (temperature, humidity, water supply). Three weeks after sowing, the test plants in the three-leaf stage are treated with the compositions according to the invention. The compositions according to the invention which are formulated as wettable powders or as emulsion concentrates are sprayed in various dosages on the green parts of the plants at an application rate of 600 to 800 l of water/ha (converted). After the test plants have remained in the greenhouse for about 3 to 4 weeks under optimal growth conditions, the effect of the products is scored visually by comparison with untreated controls. When applied post-emergence, too, the compositions according to the invention have a good herbicidal activity against a broad spectrum of economically important grass weeds and broad-leaved weeds.
(§2) Crop plants were raised outdoors under natural outdoor conditions on plots in which seeds or rhizome sections of typical harmful plants had been sown or the natural weed infestation was used. The treatment with the compositions according to the invention was carried out after the emergence of the harmful plants and the crop plants, as a rule in the 2 to 4-leaf stage; in some cases (as indicated) the application of individual active substances or active substance combinations was carried out pre-emergence (cf. Example 1) or as a sequence treatment, in some cases pre-emergence and/or post-emergence.
After the application, e.g. 2, 4, 6 and 8 weeks after application, the action of the preparations was scored visually in comparison with untreated controls (cf. score in Example 1). […] The crop plants, however, were not damaged or were only insignificantly damaged as a result of the treatment with the herbicidal compositions.

For a further series, the system named is rice. Briefly: Damage on crop plants (selectivity), visual scoring. The note with it: Table 24; post-emergence; scoring 6 weeks after application; g of A.S./ha by row: r6 45, r7 22.5, r8 60, r9 30, r11 22.5 + 30, r13 60, r14 30, r16 22.5 + 30, r18 450, r20 22.5 + 450. The series is classed as in vivo. Here is the method:
as §1, §2
After the application, e.g. 2, 4, 6 and 8 weeks after application, the action of the preparations was scored visually in comparison with untreated controls (cf. score in Example 1). […]

1 compound from patent publication US6486096B1, “Herbicidal compositions with acylated aminophenylsulfonylureas” (priority 1998, dated 2002) can be followed below.

For `COP(=S)(OC)SCC(=O)N(c1ccc(Cl)cc1)C(C)(C)C` [(B1.6.11), anilofos], the “Herbicidal action Brachiaria plantophylla” value in the series on Brachiaria plantophylla is 35%. Also, in the series on rice, the Damage on rice is listed as 8%.
